Converted amounts (≈) assume the structure as drawn. Read-outs that look alike come from different tables or passages of the source.
Legend:
[1] = system: endometrial cancer; test: Case of a patient with stage IV chemoresistant metastatic endometrial cancer (PET/CT follow up)
Excerpt: Soon after the experiments detailed above a person came to us. They were diagnosed with endometrial cancer after presenting with significant pain and discomfort. They had already undergone a total hysterectomy and bilateral salpingo-oophorectomy followed by five rounds of chemotherapy. Each of the first five rounds of chemotherapy was a combined chemotherapy with Paclitaxil/Carboplatin.
See, Tables 3 and 4, below. […] As such, […] began standard protocol GemCap treatment in combination with a regime of 30 mg of BSHE twice daily via oral mucosal delivery and 75 mg of FSHE once daily via intravaginal delivery.

[2] = system: patient derived endometrial cancer organoids; test: Patient-derived endometrial cancer organoid viability: chemotherapeutic agent alone or with IC50 dose of cannabis extract
Description: To perform these experiments, we used cells from patient 4 (see, e.g., FIGS. 7A and 7C) to test grade 2 endometrial cancer and cells from patient 12 (see, e.g., FIGS. 7B-7D) to test grade 3 endometrial cancer. […] Methods concerning producing organoids from human tissue samples are provided in the Methods section at the end of this document.
(§1) Individual patient cell organoids were cultured separately in different plates.
(§2) The same IC50 dose was given with each incremental dose of chemotherapeutic agent.

[3] = system: patient derived endometrial cancer tumors; test: Patient-derived xenograft mice: change in endometrial cancer tumor volume with cannabis extracts alone; format: in vivo; settings: for decrease in average tumor volume vs day 0: day 10
Description: Generally, EC stem cells from the same patients that participated in the organoid studies of FIG. 7, were injected into the mice, and allowed to grow. After tumors reached a certain size, the mice were either injected (3 times/week) with the extract-delivery vehicle or with the particular cannabis extract. After a certain amount of time elapsed, tumor size was measured. The details regarding patient-derived xenograft methodology and experimental protocol are provided in the Methods section.
The % change is an average number taken from tumor volumes of three mice compared to the starting average tumor volume on day 0 of treatment. Change can either be positive (tumor increases in size) or negative (tumor decreases in size).
(§3) Human patient cells from endometrial cancer were injected subcutaneously into female NOD/SCID gamma mice after resuspending in 100 μL solution. […] Tumor size was measured before treatment, followed by twice a week measurements. All treatment group mice were kept alive for up to 10 weeks after drug injection or until the tumor volume grows bigger than 2500 mm^3.

[4] = cited from earlier work
[5] = biological target: CYP2C19 (Homo sapiens, UniProt P33261); settings: in vitro; cited from earlier work
Sequence of CYP2C19 (P33261 whole entry, species assumed): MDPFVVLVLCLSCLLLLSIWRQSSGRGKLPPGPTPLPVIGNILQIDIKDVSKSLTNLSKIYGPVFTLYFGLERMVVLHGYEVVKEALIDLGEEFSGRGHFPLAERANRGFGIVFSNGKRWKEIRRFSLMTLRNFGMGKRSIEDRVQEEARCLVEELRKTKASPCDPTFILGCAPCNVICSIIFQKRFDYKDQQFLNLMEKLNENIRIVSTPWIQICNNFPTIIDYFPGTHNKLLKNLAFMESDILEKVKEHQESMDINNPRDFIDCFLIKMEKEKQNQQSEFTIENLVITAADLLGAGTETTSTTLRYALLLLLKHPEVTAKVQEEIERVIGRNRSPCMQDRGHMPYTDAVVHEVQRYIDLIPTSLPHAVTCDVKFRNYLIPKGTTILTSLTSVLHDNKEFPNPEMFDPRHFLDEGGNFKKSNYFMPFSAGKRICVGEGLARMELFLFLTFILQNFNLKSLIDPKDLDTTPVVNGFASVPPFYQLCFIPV

[6] = cited from earlier work; remark: listed apart in the source
[7] = biological target: P-glycoprotein (Homo sapiens, UniProt P08183); settings: in vitro; cited from earlier work
Sequence of P-glycoprotein (P08183 whole entry): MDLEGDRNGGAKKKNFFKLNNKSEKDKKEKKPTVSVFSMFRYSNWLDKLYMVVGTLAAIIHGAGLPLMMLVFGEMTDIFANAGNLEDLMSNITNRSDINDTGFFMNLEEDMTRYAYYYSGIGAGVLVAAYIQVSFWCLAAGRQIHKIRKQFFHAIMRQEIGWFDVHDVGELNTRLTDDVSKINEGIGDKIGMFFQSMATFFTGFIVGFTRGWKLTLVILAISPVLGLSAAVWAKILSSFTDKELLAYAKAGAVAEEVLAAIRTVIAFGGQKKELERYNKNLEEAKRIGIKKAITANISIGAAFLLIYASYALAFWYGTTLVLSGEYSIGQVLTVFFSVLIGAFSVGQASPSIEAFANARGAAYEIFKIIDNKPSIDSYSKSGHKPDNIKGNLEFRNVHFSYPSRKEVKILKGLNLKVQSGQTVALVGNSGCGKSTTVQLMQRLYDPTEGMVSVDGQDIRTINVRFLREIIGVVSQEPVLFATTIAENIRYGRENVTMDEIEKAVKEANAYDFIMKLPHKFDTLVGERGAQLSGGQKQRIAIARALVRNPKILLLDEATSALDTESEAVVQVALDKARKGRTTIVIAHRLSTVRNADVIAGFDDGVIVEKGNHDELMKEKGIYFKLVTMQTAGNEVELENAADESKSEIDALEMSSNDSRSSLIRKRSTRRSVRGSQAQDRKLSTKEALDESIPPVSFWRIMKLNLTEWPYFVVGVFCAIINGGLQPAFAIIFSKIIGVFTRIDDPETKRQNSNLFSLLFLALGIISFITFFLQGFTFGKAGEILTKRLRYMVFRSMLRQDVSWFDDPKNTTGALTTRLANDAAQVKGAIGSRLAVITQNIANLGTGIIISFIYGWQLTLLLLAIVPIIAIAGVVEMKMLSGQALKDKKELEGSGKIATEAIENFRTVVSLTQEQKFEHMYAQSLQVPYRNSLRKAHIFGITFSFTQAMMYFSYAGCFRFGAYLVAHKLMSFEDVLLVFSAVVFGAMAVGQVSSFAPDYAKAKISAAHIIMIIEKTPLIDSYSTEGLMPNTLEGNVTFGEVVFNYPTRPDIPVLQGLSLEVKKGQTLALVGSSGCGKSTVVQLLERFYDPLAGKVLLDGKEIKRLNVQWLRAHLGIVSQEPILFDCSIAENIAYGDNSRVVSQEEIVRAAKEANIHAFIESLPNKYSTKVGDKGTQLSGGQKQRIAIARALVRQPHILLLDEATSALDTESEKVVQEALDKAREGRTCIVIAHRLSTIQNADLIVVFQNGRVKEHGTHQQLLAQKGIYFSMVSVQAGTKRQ

[8] = system: endometrial cancer patient derived organoids; test: Viability of patient-derived endometrial cancer organoids treated with cannabis extracts (CellTiter-Glo); settings: for IC50: Homo sapiens; for viable organoids in words: 7 and 10 μg/mL
Description: For this set of experiments, we obtained tissue samples from a new set of 12 patients, each having grade 1, grade 2, or grade 3 endometrial cancer. Cells from these patients were prepared as described in the Methods section below.
as §1, §2

[9] = system: organoids derived from ovarian cancer tissue; test: Impact of pH on viability of ovarian cancer organoids treated with cannabis extracts; format: cell-based; settings: 10 μg/mL; pH 8
Description: In this set of experiments, organoids were derived from ovarian cancer tissue.

[10] = system: patient derived endometrial cancer tumors; test: Patient-derived xenograft mice: tumor volume with paclitaxel alone or combined with cannabis extract; format: in vivo
Description: as §3

[11] = system: patient derived organoids; format: cell-based, human; settings: % of cells that died compared to control; organoids of the chemoresistant patient
Description: In addition to the agents listed above, several other drugs were tested to see if they influenced organoid growth. In this case, results are shown as the % of cells that died compared to control. […] This is consistent with the patient's actual lack of response to treatment with paclitaxel.

[12] = system: organoids from the patient's endometrial cancer; test: Response of organoids crafted from the patient's endometrial cancer to alternative chemotherapies and BSHE; format: cell-based, human; settings: chemoresistant stage IV endometrial cancer patient
Excerpt: See, Tables 3 and 4, below.

[13] = day 14, 6 doses total of about 30 mg/kg
[14] = read-out: IC50s for Patient 4 Organoids (Grade 2 Endometrial Cancer)
[15] = read-out: IC50s for Patient 12 Organoids (Grade 3 Endometrial Cancer)
[16] = before cannabis extract treatment

CCN1CCN(Cc2ccc(Nc3ncc(F)c(-c4cc(F)c5nc(C)n(C(C)C)c5c4)n3)nc2)CC1 [Abemaciclib]
adverse effects of the patient's earlier treatment ([1]; human, in vivo): severe adverse effects

C=C(C)[C@@H]1CCC(C)=C[C@H]1c1c(O)cc(CCCCC)cc1O [CBD isolate, cannabidiol]
decrease in viable organoids compared to carboplatin alone ([2]; patient 4, IC50 dose of extract + 100 μM/mL carboplatin): about 32% | decrease in the % of viable organoids when 4 nM/mL paclitaxel is combined with extract ([2]; patient 12, grade 3, IC50 dose of extract + 4 nM/mL paclitaxel): up to 19% | decrease in average tumor volume vs day 0 ([3]; about 30 mg/kg, 3 times/week): not as responsive | decrease in average tumor volume compared to starting size [3, 13]: less than 50% | effect on peak plasma drug concentrations ([4]; coadministration of ketoconazole (CYP3A4 inhibitor)): nearly doubled | effect on peak plasma concentrations ([4]; coadministration of rifampicin (CYP3A4 inducer)): significantly reduced | increase of Cmax ([4]; coadministration with high fat food): up to 5 fold | Tmax ([4]; delivery via nasal mucosa): approximately 10 minutes | maximum plasma concentration (time) ([4]; oral): 2.5 to 5 h | maximum plasma concentration (time), delayed in some individuals ([4]; oral): up to 6 hours | serum bioavailability ([4]; orally delivered, consumed with CBDA): increase substantially | maximum plasma concentration (time) ([4]; oromucosal or sublingual delivery): 1.6 h | bioavailability ([4]; rectal suppository delivery): 51-60% | inhibition of CYP2C19 enzymes [5]: potent inhibitor | dose with clinically significant drug interactions ([6]; current literature): 20 mg/kg/day | doses established as well tolerated ([6]; humans, chronic use): up to 1,500 mg/day | dose with meaningful interactions with Warfarin ([6]; published case study): 10 mg/kg | P-glycoprotein-mediated drug transport [7]: significantly inhibits | IC50 [8, 14]: 3.09 µg/mL (≈ 9.83 µM) | IC50 [8, 15]: 2.92 µg/mL (≈ 9.29 µM) | IC50 ([8]; read-out: dose at which 50% viability of organoids was obtained): ~3 µg/mL (≈ 9.54 µM) | viable organoids / response in words ([8]; grade 1, 10 μg/mL): does not show complete response | response of organoids ([8]; grade 1 lower responder patient, 15 and 20 μg/mL): complete response | viable organoids in words ([8]; grade 2): virtually zero | viable organoids in words ([8]; grade 3): virtually zero | dose at which 50% viability of organoids was obtained ([8]; grade 3 representative sample (FIG. 7)): about 3 μg/mL | efficacy compared to native pH [9]: virtually no change

C=C(C)[C@@H]1CCC(C)=C[C@H]1c1c(O)cc(CCCCC)c(C(=O)O)c1O [CBDA, cannabidiolic acid]
increase in average tumor volume vs day 0 ([3]; day 7, 3 doses of about 30 mg/kg, injected 3 times/week): greater than 30% | overall decrease in average tumor volume in three days ([3]; day 7 to day 10, about 30 mg/kg, 3 times/week): greater than 60% | decrease in average tumor volume vs day 0 ([3]; about 30 mg/kg, 3 times/week): greater than 30% | decrease in average tumor volume compared to starting size [3, 13]: 70% | decrease in average tumor volume compared to starting size ([3]; day 21, 9 doses total of about 30 mg/kg): ~100% | bioavailability ([4]; consumed with other cannabinoids in FSHE vs equivalent dose of isolated CBDA): increased bioavailability | response of organoids ([8]; 10 and 15 μg/mL): a strong response was not seen in all patient derived organoids | IC50 [8, 14]: 12.1 µg/mL (≈ 33.6 µM) | IC50 [8, 15]: 15.8 µg/mL (≈ 44.1 µM) | formation of viable organoids ([8]; all patients, dosing up to 50 μg/mL): ~0% | effect on organoid viability ([8]; lower doses): did not affect organoid viability | increase in average tumor volume ([10]; a few days before day 14, extract 30 mg/kg + paclitaxel 10 mg/kg): ~40% | decrease in average tumor volume compared to paclitaxel alone ([10]; day 14, extract 30 mg/kg + paclitaxel 10 mg/kg): ~20%

CC(=O)O[C@H]1C(=O)[C@@]2(C)[C@H]([C@H](OC(=O)c3ccccc3)[C@]3(O)C[C@H](OC(=O)[C@H](O)[C@@H](NC(=O)c4ccccc4)c4ccccc4)C(C)=C1C3(C)C)[C@]1(OC(C)=O)CO[C@@H]1C[C@@H]2O [Paclitaxel]
organoid viability ([2]; human, 9 days, 4 nM/mL): about 30% | improvement of 20 nM/mL over the lower dose (4 nM/mL) ([2]; patient 4, grade 2, paclitaxel alone): about 12% | improvement in reducing % viable organoids between 4 nM/mL and 20 nM/mL ([2]; patient 12, grade 3, paclitaxel alone): ~5% | decrease in tumor volume ([10]; paclitaxel alone 10 mg/kg, day 10): ~37% | further change of tumor volume ([10]; paclitaxel alone 10 mg/kg, day 10 to day 21): does not really change | % Cell Death [11]: 39%

Atezolizumab
adverse effects of the patient's earlier treatment [1, 16]: severe adverse effects | outcome of the patient's earlier treatment [1, 16]: failed

Paclitaxil/Carboplatin
outcome of the patient's earlier treatment [1, 16]: ineffective

gemcitabine/capecitabine [GemCap]
response of the patient's organoids [12]: partial response
